Columns and labels:
Wistar rats = experiment: Acute toxicity test, oral and intraperitoneal, rats; type: in vivo; conditions: oral and intraperitoneal administration; Wistar rats (128)
New Zealand rabbits = experiment: Acute toxicity test, oral and intraperitoneal, rabbits; type: in vivo; conditions: oral and intraperitoneal administration; New Zealand rabbits (128)
rats [1] = conditions: rat, in vivo
rabbits [2] = conditions: rabbit, in vivo
healthy male volunteers = experiment: Respiratory and metabolic parameters by indirect calorimetry during infusion; type: in vivo
Experimental: Respiratory and metabolic parameters were evaluated by indirect calorimetry from the beginning of the infusion for 210 minutes.

[3] = human, in vivo
clinical [4] = conditions: human, in vivo, iv
rabbits [5] = conditions: rabbit, in vivo; remark: listed apart in the source
Description: (§1) Similarly, subacute and chronic toxicities were studied in 40 rats (20 male and 20 female) and 40 rabbits (20 male and 20 female) that had been administered sebacic acid formulated into pellets.

rats [6] = conditions: rat, in vivo; remark: listed apart in the source
Description: as §1

rats [7] = conditions: rat, in vivo; remark: listed apart in the source
rabbits [8] = conditions: rabbit, in vivo; remark: listed apart in the source
clinical [9] = conditions: human, in vivo, iv; remark: listed apart in the source
[10] = Toxicity (general statement)

## O=C([O-])CCCCCCCCC(=O)[O-].[Na+].[Na+] [disodium sebacate]
Wistar rats
  LD50: did not allow LD50 to be assessed
New Zealand rabbits
  LD50: did not allow LD50 to be assessed
Rats [1]
  Acute or chronic toxic effects: do not exhibit particular acute or chronic toxic effects
Rabbits [2]
  Acute or chronic toxic effects: do not exhibit particular acute or chronic toxic effects

## O=C([O-])CCCCCCCCC(=O)[O-].[K+].[K+] [potassium sebacate]
Rats [1]
  Acute or chronic toxic effects: do not exhibit particular acute or chronic toxic effects
Rabbits [2]
  Acute or chronic toxic effects: do not exhibit particular acute or chronic toxic effects

## O=C(O)CCCCCCCCC(=O)O [sebacate]
Healthy male volunteers; during and after the infusion, from -0.13±13.3
  Percent of calories derived from lipids: 52.1±26.2%
Healthy male volunteers; end of the infusion, basal 147.7±27.3
  CO2 production (VCO2): 123.7±25.0 ml/min/m^2
Healthy male volunteers; from 0.96±0.04, decreased significantly
  Respiratory quotient (RQ): 0.81±0.06
Healthy male volunteers; time 180 min, time 0: 154.3±28.3
  O2 consumption (VO2): 155.3±39.5 ml/min/m^2
[3]
  Tissue fixation: good tissue fixation
Clinical [4]
  Tmax: 3 h
  clearance: 99.3 mL/min
  half-life: 0.34 ± 0.06 h
Clinical [4]; Volume of the central compartment
  Vd: 2.79 ± 0.54 L
Clinical [4]; Volume of tissue compartment
  Vd: 3.72 ± 0.14 L

## O=C(O)CCCCCCCCC(=O)O [sebacic acid]
Rabbits [5]
  Biological parameters (haematic values, growing curves, histologic samples): No significant difference in biological parameters
Rats [6]
  Biological parameters (haematic values, growing curves, histologic samples): No significant difference in biological parameters
Rats [7]
  Fetal development: fetal development was absolutely normal
  Fetal toxicity, teratogenesis and neonatal toxicity: did not allow any toxicity effect to be detected
  Teratogenic effect: no teratogenic effect was ever noticed
Rabbits [8]
  Fetal development: fetal development was absolutely normal
  Fetal toxicity, teratogenesis and neonatal toxicity: did not allow any toxicity effect to be detected
  Teratogenic effect: no teratogenic effect was ever noticed
[3]
  Tubular secretion: a tubular secretion of sebacic acid had taken place
human
  Energy production: 6.64 kcal/g
In vivo
  Oxidation in the body: completely oxidized in the body to CO2 and H2 O
Clinical [9]
  dose excreted: < 16%
[10]
  Toxicity: Neither sebacic acid nor its derivatives according to the present invention are toxic
